Like-named read-outs stand apart in the source and are kept apart here.
How the values were obtained:
rhesus monkeys = conditions: catecholamine-depleted association cortex; cited from earlier work
alpha-2I subtype = conditions: second figure of the alpha-2R/alpha-2I Ki ratio; cited from earlier work
alpha-2R subtype [1] = conditions: cited from earlier work
aged monkeys [2] = conditions: for Sedation Score (0-IV): mean
Description: Sedation was rated using a 5 point scale where 0=normal level of arousal, I=quiet, II=sedated, III=intermittent sleeping and IV=too sedated to test.

aged monkeys [3] = test: blood pressure study in awake chaired aged monkeys; assay type: in vivo, rhesus monkeys; conditions: for Systolic Blood Pressure, change vs placebo control: mean; for drop in systolic blood pressure: at the high doses optimal for memory improvement
Description: In order to measure blood pressure in the awake, behaving monkey, three aged animals were adapted to primate chair restraint for several weeks. Blood pressure was measured using a pediatric digital blood pressure monitor. Each day the animals were […] immediately injected with the drug or saline. Fifteen minutes later, three blood pressure measurements were taken. […] Following memory testing, three more blood pressure measurements were taken before the monkey was returned to its home cage. The average blood pressure response before and after memory testing was calculated; drug response was compared to the previous response on saline Drug administration was initiated only after a stable blood pressure baseline was apparent.

aged monkeys [4] = test: variable delayed response task (spatial working memory) in aged monkeys; conditions: for Delayed Response Performance (% change from placebo control): mean; for dose range in which effective: memory improvement, summary statement; for average optimal dose for improving memory: aged monkeys; for average optimal dose for improving memory / Optimal dose: equimolar clonidine dose; for aged monkeys with improved memory: applicants' experiments; for Percent Improvement: at individual optimal dose; for Optimal dose: i.m.
[5] = clinical blood pressure studies; cited from earlier work
Alzheimer patients = conditions: acute administration; study was terminated; cited from earlier work
aged monkeys [6] = conditions: early experiments, Science 230, 1273 (1985); cited from earlier work
aged monkeys [7] = conditions: 0.01 to 0.09 mg/kg; background; cited from earlier work
Korsakoff patients = conditions: about 0.01 to 0.02 mg/kg/day for two weeks; cited from earlier work
alpha-2R subtype [8] = conditions: alpha-2R vs alpha-2I
Description: Receptor binding data provides evidence for two distinct alpha-2 receptor sub-types, C. […] One subtype binds with high affinity to the antagonist idazoxan, and is referred to as the "alpha-2I subtype"; the other subtype binds with high affinity to both idazoxan and to the antagonist, rauwolscine, and is referred to as the "alpha-2R subtype".

[9] = dose .0001 mg/kg i.m. (equimolar clonidine dose)
[10] = dose .001 mg/kg i.m. (equimolar clonidine dose)
[11] = dose .01 mg/kg i.m. (equimolar clonidine dose)
[12] = dose .05 mg/kg i.m. (equimolar clonidine dose)

For `N[C@@H](Cc1ccc(O)c(O)c1)C(=O)O` [L-dopa], the “effect on behavioral deficit in spatial delayed alternation” value (shortened to “effect on behavioral deficit”) (rhesus monkeys) is listed as “pharmacologically reversed”.

In the case of `N=C(N)N/N=C/c1c(Cl)cccc1Cl` [Guanabenz, guanabenz], the Ki (alpha-2I subtype) is listed as 5.3 nM, the Ki (alpha-2R subtype [1]) is listed as 36.7 nM and the “Sedation Score (0-IV)” value (aged monkeys [2]; dose .00000005 mg/kg i.m.) is listed as 0. For the same compound, the “Sedation Score (0-IV)” value (aged monkeys [2]; dose .00001 mg/kg i.m.) was 0, the “Sedation Score (0-IV)” value (aged monkeys [2]; dose .0001 mg/kg i.m.) was 0 and the “Sedation Score (0-IV)” value (aged monkeys [2]; dose .001 mg/kg i.m.) was 0. For the same compound, the “Sedation Score (0-IV)” value (aged monkeys [2]; dose .01 mg/kg i.m.) was 0, the “Sedation Score (0-IV)” value (aged monkeys [2]; dose .05 mg/kg i.m.) was “I” and the “hypotensive effects compared with the other agonists” value (aged monkeys [3]; rhesus monkey, in vivo) was “more hypotensive side effects than guanfacine, but fewer side effects than clonidine”. The “Delayed Response Performance (% change from placebo control)” value (aged monkeys [4]; dose .00000005 mg/kg i.m. (equimolar clonidine dose)) was “+8%”, the “Delayed Response Performance (% change from placebo control)” value (aged monkeys [4]; dose .00001 mg/kg i.m. (equimolar clonidine dose)) was -1% and the “Delayed Response Performance (% change from placebo control)” value (aged monkeys [4]; [9]) was “+1%”. For the same compound, the “Delayed Response Performance (% change from placebo control)” value (aged monkeys [4]; [10]) was -2%, the “Delayed Response Performance (% change from placebo control)” value (aged monkeys [4]; [11]) was “+7%” and the “Delayed Response Performance (% change from placebo control)” value (aged monkeys [4]; [12]) was “+7%”. For the same compound, the “dose range in which effective” value (aged monkeys [4]) was “picogram/kg range” and the “doses at which memory improved” value (aged monkeys [4]; monkey #445, FIG. 3) was 5e-05 to 10 µg/kg.

In the case of `CN1CCc2cccc3c2[C@H]1Cc1ccc(O)c(O)c1-3` [apomorphine], the “effect on behavioral deficit” value (rhesus monkeys) is listed as “pharmacologically reversed”.

In the case of `N=C(N)NC(=O)Cc1c(Cl)cccc1Cl` [Guanfacine, guanfacine], the Ki (alpha-2I subtype) is listed as 22.6 nM, the Ki (alpha-2R subtype [1]) is listed as 340 nM and the “Sedation Score” value (aged monkeys [2]; rhesus monkey, in vivo) is listed as 0. The sedation scores (aged monkeys [2]; rhesus monkey, in vivo) was 0, the “Systolic Blood Pressure, change vs placebo control” value (“Systolic Blood Pressure, change” below) (aged monkeys [3]; dose .0001 mg/kg i.m.) was “+3 mm Hg” and the “Systolic Blood Pressure, change” value (aged monkeys [3]; dose .001 mg/kg i.m.) was “+6 mm Hg”. The “Systolic Blood Pressure, change” value (aged monkeys [3]; dose .01 mg/kg i.m.) was -11 mm Hg, the “Systolic Blood Pressure, change” value (aged monkeys [3]; dose .05 mg/kg i.m.) was -21 mm Hg and the “average change in systolic blood pressure” value (aged monkeys [3]; low, memory-improving doses) was “+6 mm Hg”. For the same compound, the “potency relative to clonidine” value [5] was 1/10, the “average optimal dose for improving memory” value (“average optimal dose” for short) (aged monkeys [4]) was “about 0.001 mg/kg” and the “aged monkeys with improved memory” value (aged monkeys [4]) was 11/11. For the same compound, the “Delayed Response Performance (% change from placebo control)” value (aged monkeys [4]; [9]) was “+9%”, the “Delayed Response Performance (% change from placebo control)” value (aged monkeys [4]; [10]) was “+10%” and the “Delayed Response Performance (% change from placebo control)” value (aged monkeys [4]; [11]) was “+10%”. For the same compound, the “Delayed Response Performance (% change from placebo control)” value (aged monkeys [4]; [12]) was -6%, the “duration of memory effects” value (aged monkeys [4]; low doses) was “up to four days” and the “dose range in which effective” value (aged monkeys [4]) was “nanogram/kg range”. The “Percent Improvement” value (aged monkeys [4]; monkey #107) was 20%, the Optimal dose (aged monkeys [4]; monkey #107) was 10 µg/kg and the “Percent Improvement” value (aged monkeys [4]; monkey #113) was 23%. For the same compound, the Optimal dose (aged monkeys [4]; monkey #113) was 0.001 µg/kg, the “Percent Improvement” value (aged monkeys [4]; monkey #121) was 10% and the Optimal dose (aged monkeys [4]; monkey #121) was 0.001 µg/kg. The “Percent Improvement” value (aged monkeys [4]; monkey #124) was 18%, the Optimal dose (aged monkeys [4]; monkey #124) was 0.1 µg/kg and the “Percent Improvement” value (aged monkeys [4]; monkey #343) was 13%. For the same compound, the Optimal dose (aged monkeys [4]; monkey #343) was 0.01 µg/kg, the “Percent Improvement” value (aged monkeys [4]; monkey #444) was 13% and the Optimal dose (aged monkeys [4]; monkey #444) was 10 µg/kg. The “Percent Improvement” value (aged monkeys [4]; monkey #445) was 20%, the Optimal dose (aged monkeys [4]; monkey #445) was 1 µg/kg and the “Percent Improvement” value (aged monkeys [4]; monkey #446) was 10%. For the same compound, the Optimal dose (aged monkeys [4]; monkey #446) was 10 µg/kg, the “Percent Improvement” value (aged monkeys [4]; monkey #447) was 20% and the Optimal dose (aged monkeys [4]; monkey #447) was 1 µg/kg. The “Percent Improvement” value (aged monkeys [4]; monkey #448) was 23%, the Optimal dose (aged monkeys [4]; monkey #448) was 0.01 µg/kg and the “Percent Improvement” value (aged monkeys [4]; monkey #449) was 20%. It also gave an Optimal dose (aged monkeys [4]; monkey #449) of 1 µg/kg.

For `Clc1cccc(Cl)c1N=C1NCCN1` [Clonidine, clonidine], the side effects (Alzheimer patients) is given as “severe hypotension and sedation”, the Ki (alpha-2I subtype) is given as 38.1 nM and the “effect on behavioral deficit” value (rhesus monkeys) is given as “pharmacologically reversed”. The “aged monkeys with improved memory” value (aged monkeys [6]) was 5/5, the “side effects at memory-enhancing doses” value (aged monkeys [7]) was “profound hypotension and sedation” and the Ki (alpha-2R subtype [1]) was 27.7 nM. For the same compound, the “Sedation Score (0-IV)” value (aged monkeys [2]; dose .0001 mg/kg i.m.) was 0, the “Sedation Score (0-IV)” value (aged monkeys [2]; dose .001 mg/kg i.m.) was 0 and the “Sedation Score (0-IV)” value (aged monkeys [2]; dose .01 mg/kg i.m.) was “I”. For the same compound, the “Sedation Score” value (aged monkeys [2]; monkey #121, at individual optimal dose) was 0, the “Sedation Score” value (aged monkeys [2]; monkey #445, at individual optimal dose) was “I” and the “Sedation Score” value (aged monkeys [2]; monkey #449, at individual optimal dose) was 0. The “drop in systolic blood pressure” value (aged monkeys [3]) was “greater than 50 mm Hg”, the “Systolic Blood Pressure, change” value (aged monkeys [3]; dose .0001 mg/kg i.m.) was -23 mm Hg and the “Systolic Blood Pressure, change” value (aged monkeys [3]; dose .001 mg/kg i.m.) was -8 mm Hg. The “Systolic Blood Pressure, change” value (aged monkeys [3]; dose .01 mg/kg i.m.) was -32 mm Hg, the “Systolic Blood Pressure, change” value (aged monkeys [3]; dose .05 mg/kg i.m.) was > -50 mm Hg and the “effect on memory performance” value (Korsakoff patients) was “improved memory performance”. The “average optimal dose” value (aged monkeys [4]) was 50 µg/kg, the “aged monkeys with improved memory” value (aged monkeys [4]) was 8 and the effect on memory (aged monkeys [4]; dose 0.0001 to 0.01 mg/kg) was “often impaired memory”. The “Delayed Response Performance (% change from placebo control)” value (aged monkeys [4]; [9]) was -6%, the “Delayed Response Performance (% change from placebo control)” value (aged monkeys [4]; [10]) was “+3%” and the “Delayed Response Performance (% change from placebo control)” value (aged monkeys [4]; [11]) was “+6%”. For the same compound, the “Delayed Response Performance (% change from placebo control)” value (aged monkeys [4]; [12]) was “+12%”, the “Percent Improvement” value (aged monkeys [4]; monkey #107) was 27% and the Optimal dose (aged monkeys [4]; monkey #107) was 10 µg/kg. For the same compound, the “Percent Improvement” value (aged monkeys [4]; monkey #113) was 30%, the Optimal dose (aged monkeys [4]; monkey #113) was 50 µg/kg and the “Percent Improvement” value (aged monkeys [4]; monkey #121) was 17%. The Optimal dose (aged monkeys [4]; monkey #121) was 5 µg/kg, the “Percent Improvement” value (aged monkeys [4]; monkey #124) was 23% and the Optimal dose (aged monkeys [4]; monkey #124) was 40 µg/kg. The “Percent Improvement” value (aged monkeys [4]; monkey #343) was 30%, the Optimal dose (aged monkeys [4]; monkey #343) was 200 µg/kg and the “Percent Improvement” value (aged monkeys [4]; monkey #444) was 25%. The Optimal dose (aged monkeys [4]; monkey #444) was 30 µg/kg, the “Percent Improvement” value (aged monkeys [4]; monkey #445) was 18% and the Optimal dose (aged monkeys [4]; monkey #445) was 40 µg/kg. The “Percent Improvement” value (aged monkeys [4]; monkey #446) was 17%, the Optimal dose (aged monkeys [4]; monkey #446) was 80 µg/kg and the “Percent Improvement” value (aged monkeys [4]; monkey #447) was 23%. The Optimal dose (aged monkeys [4]; monkey #447) was 60 µg/kg, the “Percent Improvement” value (aged monkeys [4]; monkey #448) was 30% and the Optimal dose (aged monkeys [4]; monkey #448) was 70 µg/kg. The “Percent Improvement” value (aged monkeys [4]; monkey #449) was 23% and the Optimal dose (aged monkeys [4]; monkey #449) was 1 µg/kg.

In the case of `C=CCN1CCc2nc(N)sc2CC1` [BHT-920], the Ki (alpha-2I subtype) is listed as 138 nM, the “selectivity for the alpha-2R subtype” value (alpha-2R subtype [8]) is listed as “two times more selective” and the Ki (alpha-2R subtype [1]) is listed as 62.2 nM. For the same compound, the “drop in systolic blood pressure” value (aged monkeys [3]) was “greater than 50 mm Hg”, the “Systolic Blood Pressure, change” value (aged monkeys [3]; dose .0001 mg/kg i.m.) was -9 mm Hg and the “Systolic Blood Pressure, change” value (aged monkeys [3]; dose .001 mg/kg i.m.) was -8 mm Hg. For the same compound, the “Systolic Blood Pressure, change” value (aged monkeys [3]; dose .01 mg/kg i.m.) was -37 mm Hg, the “Systolic Blood Pressure, change” value (aged monkeys [3]; dose .05 mg/kg i.m.) was > -50 mm Hg and the “hypotensive effects compared with the other agonists” value (aged monkeys [3]; monkey #445, FIG. 3) was “very similar to those of clonidine”. The “average optimal dose” value (aged monkeys [4]) was 70 µg/kg, the “Delayed Response Performance (% change from placebo control)” value (aged monkeys [4]; [9]) was 0% and the “Delayed Response Performance (% change from placebo control)” value (aged monkeys [4]; [10]) was -3%. The “Delayed Response Performance (% change from placebo control)” value (aged monkeys [4]; [11]) was “+9%”, the “Delayed Response Performance (% change from placebo control)” value (aged monkeys [4]; [12]) was “+8%” and the “Delayed Response Performance (% change from placebo control)” value (aged monkeys [4]; dose .08 mg/kg i.m. (equimolar clonidine dose)) was “+15%”.
